Values of other authors in US20090226465A1, “MACROCYCLIC DEPSIPEPTIDE ANTIBODY-DRUG CONJUGATES AND METHODS” (priority 2005, published 2009).
*1 amine or outer side, *2 acyl side, *3 side chain or, on linkers, in order; H or OH if unused. Where a SMILES comes first, the peptide text is derived from it. Bridges are numbered along the chain shown (N, C = ends). [ ]: non-standard residue; d: D form. The star is where a group is joined. X1 = CC[C@H](C)[C@@H](N[*:1])[C@@H](O)CC(=O)O[C@H](C(=O)[C@H](C)C(=O)[*:2])C(C)C; NMeY = CN[C@@H](Cc1ccc(O)cc1)C(=O)O; dNMeL = CN[C@H](CC(C)C)C(=O)O; Pyruvoyl = CC(=O)C(=O)*

Experiments:
[1] = system: panel of solid tumor cell lines; settings: read-out: in vitro IC50

CC[C@H](C)[C@H]1NC(=O)[C@@H](NC(=O)[C@@H](CC(C)C)N(C)C(=O)[C@@H]2CCCN2C(=O)C(C)=O)[C@@H](C)OC(=O)[C@H](Cc2ccc(OC)cc2)N(C)C(=O)[C@@H]2CCCN2C(=O)[C@H](CC(C)C)NC(=O)[C@@H](C)C(=O)[C@H](C(C)C)OC(=O)C[C@@H]1O [Aplidin] (Pyruvoyl-P[dNMeL]T[X1]LP[NMeY](Me); ester 3-C)
IC50 [1]: 1 to 100 nM | half life in plasma: 4 to 7 h
